IC50 data for 8 compounds are collected here from patent publication US7902218B2, “Substituted tetrahydroisoquinolines as β-secretase inhibitors” (Bristol-Myers Squibb Company, priority 2006, dated 2011).

In general, IC50 refers to the point on the concentration scale where inhibition reaches its midpoint.

Molecules are shown by their SMILES. Bounds are passed on as bounds.

For the first test, the target named is T1, BACE1 enzyme (Homo sapiens, UniProt P56817).
T1 construct: which overexpresses the BACE1 enzyme, was derived from HEK293 cells; endogenous in cells; washed 48,000 x g pellet of the cell homogenate
T1 sequence (P56817 46-501): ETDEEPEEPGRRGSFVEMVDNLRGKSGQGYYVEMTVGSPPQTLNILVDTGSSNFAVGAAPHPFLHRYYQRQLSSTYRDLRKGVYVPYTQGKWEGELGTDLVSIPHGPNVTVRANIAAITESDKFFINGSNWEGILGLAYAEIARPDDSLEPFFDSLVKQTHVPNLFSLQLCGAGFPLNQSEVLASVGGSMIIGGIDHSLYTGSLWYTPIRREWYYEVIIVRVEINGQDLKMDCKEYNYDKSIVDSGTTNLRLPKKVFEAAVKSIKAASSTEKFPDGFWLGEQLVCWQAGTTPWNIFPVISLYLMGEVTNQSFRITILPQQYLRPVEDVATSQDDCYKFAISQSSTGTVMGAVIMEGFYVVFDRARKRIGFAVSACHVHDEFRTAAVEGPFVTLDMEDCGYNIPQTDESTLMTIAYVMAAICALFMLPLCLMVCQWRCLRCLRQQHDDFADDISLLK
The test is described as follows: Radioligand displacement assay with a radiolabeled BACE inhibitor, HEK293-9B.A1 cell homogenate. It is filed as binding.
Details: not given
The source says:
There are a number of methods by which inhibitors of the BACE enzyme can be identified experimentally. The enzyme can be obtained from membrane samples from natural tissues or cultured cells or can be expressed recombinantly in a host cell by well known methods of molecular biology. […] The enzymatic activity and/or ligand binding capability of the enzyme can be assessed within these membrane samples, or the enzyme can be purified to varying extents. As an illustrative example, the nucleic acid sequence encoding the pro and catalytic domains of human BACE can be appended on the 5′ end with an untranslated and signal sequence from the gene for acetylcholinesterase, and on the 3′ end with a sequence encoding a poly-histidine tag. This cDNA can then be expressed in Drosophila melanogaster S2 cells in which the signal and pro sequences of the transcribed/translated protein are removed by cellular proteases and the catalytic domain, appended by a C-terminal poly-histidine tag, is secreted out into the cellular medium. The enzyme can then be purified from the culture medium by nickel affinity chromatography by methods well known to those trained in the art [Mallender, W. et al., “Characterization of recombinant, soluble beta-secretase from an insect cell expression system.” Mol. Pharmacol. 2001, 59: 619-626]. Similar strategies for expressing and purifying various forms of BACE in bacterial, mammalian and other cell types would be known to one skilled in the art.
Radioligand displacement assays with a radiolabeled BACE inhibitor (WO 2004 013098, compound 3, where the methoxy group is substituted for C(^3H)3) were carried out using standard methods (Keen, M. (1999) in Receptor Binding Techniques (Walker, J. M. ed) p. 106 Humana Press, Totowa, N.J.). The HEK293-9B.A1 cell line, which overexpresses the BACE1 enzyme, was derived from HEK293 cells (Simmons, N. L. (1990) A cultured human renal epithelioid cell line responsive to vasoactive intestinal peptide. Exp. Physiol. 75:309-19.) by RAGE™ (Harrington, J. J. et al. (2001) Creation of genome-wide protein expression libraries using random activation of gene expression. Nat. Biotechnol. 19:440-5.; U.S. Pat. Nos. 6,410,266 and 6,361,972). T225 flask cultures of HEK293-9B.A1 were grown to 80% confluency in DMEM supplemented with 2 mM L-glutamine, 10 μg/ml penecillin, 10 μg/ml streptomycin, 3 μg/ml puromycin, 100 nM methotrexate, and 10% fetal bovine serum (Invitrogen, Carlsbad, Calif.), harvested, and resuspended at 2×10^8 cells per 10 ml of lysis buffer consisting of 50 mM HEPES pH 7.0 containing a protease inhibitor cocktail of AEBSF 104 μM, aprotinin 80 nM, leupeptin 2 μM, bestatin 4 μM, pepstatin A 1.5 μM, and E-64 1.4 μM (0.1% of protease inhibitor cocktail P8340, Sigma-Aldrich, St. Louis, Mo.) at 4° C. The resuspended cells were homogenized using a Polytron (Brinkman, Westbury, N.Y.) at setting 6 for 10 sec., then centrifuged at 48,000×g for 10 min. The resulting pellet was washed by repeating the resuspension, homogenization and centrifugation steps. The final pellet was resuspended in buffer at 4° C. to yield a total protein concentration of 5 mg/ml, then aliquots were frozen in liquid nitrogen for further storage at −70° C. Immediately before carrying out a binding assay, an aliquot of cell homogenate was thawed and diluted to a concentration of 100 μg/ml in assay buffer consisting of 50 mM HEPES pH 5.0 and 0.1% CHAPSO. Assays were initiated in polypropylene 96-well plates (Costar, Cambridge, Mass.) by the addition of 200 μl of cell homogenate to 50 μl of assay buffer containing 1 nM radioligand (WO 2004 013098, compound 3, where the methoxy group is substituted for C(^3H)3: 80 Ci/mMol) and various concentrations of unlabelled compounds, and incubated for 1.5 hr. at 25° C. Separation of bound from free radioligand was by filtration on GFF glass fiber filters (Innotech Biosystems International, Lansing, Mich.) using an Innotech cell harvester.
For `CCCCN(C)C(=O)n1cc(C(=O)N[C@@H](Cc2cc(F)cc(F)c2)[C@H](O)C2Cc3ccccc3CN2)c2cccnc21` (stereo partly drawn) [Example 8, N^1-Butyl-N^3-((1R,2S)-3-(3,5-difluorophenyl)-1-hydroxy-1-(1,2,3,4-tetrahydroisoquinolin-3-yl)propan-2-yl)-N^1-methyl-1H-pyrrolo[2,3-b]pyridine-1,3-dicarboxamide], the IC50 is > 1 µM.

Staying with this test, now noted: displacement of 1 nM tritiated radioligand, HEK293-9B.A1 homogenate, pH 5.0, 1.5 hr at 25° C.; read-out: Activity Rating (Activity based on IC50 values).
Turning to `CCC(C)[C@@]1(NC(C)=O)CCN([C@@H](CCc2ccccc2)C(=O)N[C@@H](Cc2cc(F)cc(F)c2)[C@H](O)[C@H]2Cc3ccccc3CN2)C1=O` (stereo in doubt) [Example 1, (S)-2-((S)-3-Acetamido-3-((R)-sec-butyl)-2-oxopyrrolidin-1-yl)-N-((1R,2S)-3-(3,5-difluorophenyl)-1-hydroxy-1-((R)-1,2,3,4-tetrahydroisoquinolin-3-yl)propan-2-yl)-4-phenylbutanamide], the IC50 was < 0.01 µM.
Still for that read-out and setting: the figure for `CCC(C)[C@@]1(NC(C)=O)CCN([C@@H](CCc2ccccc2)C(=O)N[C@@H](Cc2cc(F)cc(F)c2)[C@H](O)[C@@H]2Cc3ccccc3CN2)C1=O` (stereo in doubt) [Example 2, (S)-2-((S)-3-Acetamido-3-((R)-sec-butyl)-2-oxopyrrolidin-1-yl)-N-((1R,2S)-3-(3,5-difluorophenyl)-1-hydroxy-1-((S)-1,2,3,4-tetrahydroisoquinolin-3-yl)propan-2-yl)-4-phenylbutanamide] is 0.01 to 1 µM; for `CCCOc1cccc2c1CN[C@@H]([C@@H](O)[C@H](Cc1cc(F)cc(F)c1)NC(=O)[C@H](CCc1ccccc1)N1CC[C@](NC(C)=O)([C@H](C)CC)C1=O)C2` [Example 3, (S)-2-((S)-3-Acetamido-3-((R)-sec-butyl)-2-oxopyrrolidin-1-yl)-N-((1R,2S)-3-(3,5-difluorophenyl)-1-hydroxy-1-((R)-8-propoxy-1,2,3,4-tetrahydroisoquinolin-3-yl)propan-2-yl)-4-phenylbutanamide] it is < 0.01 µM.
In the case of `CCCC[C@H]1CCN([C@@H](CCc2ccccc2)C(=O)N[C@@H](Cc2cc(F)cc(F)c2)[C@H](O)[C@H]2Cc3ccccc3CN2)C1=O` [Example 4], the IC50 is > 1 µM.
As to `CCCC[C@H]1CCN([C@@H](C)C(=O)N[C@@H](Cc2cc(F)cc(F)c2)[C@H](O)[C@H]2Cc3ccccc3CN2)C1=O` [Example 5, (S)-2-((S)-3-Butyl-2-oxopyrrolidin-1-yl)-N-((1R,2S)-3-(3,5-difluorophenyl)-1-hydroxy-1-((R)-1,2,3,4-tetrahydroisoquinolin-3-yl)propan-2-yl)propanamide], the IC50 was > 1 µM.
Still for that read-out and setting: the figure for `CC(=O)N[C@]1(CC(C)C)CCN([C@@H](CCc2ccccc2)C(=O)N[C@@H](Cc2cc(F)cc(F)c2)[C@H](O)[C@H]2Cc3ccccc3CN2)C1=O` [Example 6, (S)-2-((R)-3-Acetamido-3-isobutyl-2-oxopyrrolidin-1-yl)-N-((1R,2S)-3-(3,5-difluorophenyl)-1-hydroxy-1-((R)-1,2,3,4-tetrahydroisoquinolin-3-yl)propan-2-yl)-4-phenylbutanamide] is < 0.01 µM; for `CCC(C)[C@@]1(NC(C)=O)CCN([C@@H](CCc2ccccc2)C(=O)N[C@@H](Cc2cc(F)cc(F)c2)[C@H](O)C2Cc3cccc(OC)c3CN2)C1=O` (stereo partly drawn) [Example 7, (2S)-2-((S)-3-Acetamido-3-sec-butyl-2-oxopyrrolidin-1-yl)-N-((1R,2S)-3-(3,5-difluorophenyl)-1-hydroxy-1-(8-methoxy-1,2,3,4-tetrahydroisoquinolin-3-yl)propan-2-yl)-4-phenylbutanamide] it is < 0.01 µM.
